From patent US9388124B2, “Ingenol-3-acylates I” (LEO LABORATORIES LIMITED, priority 2010, dated 2016)
Like-named read-outs stand apart in the source and are kept apart here.

Key:
Assay type in all cases: cell-based
[1] = test system: Primary human epidermal keratinocytes, HeKa; experiment: HeKa cytokine release (IL-8) assay
Method: HeKa Cytokine Release (IL-8) Assay:
Primary human epidermal keratinocytes, HeKa, were seeded (10.000 cells/well) in 96-well plates the day before the assay. Test compounds were diluted in DMSO (dimethyl sulfoxide) and further diluted in assay medium and pipetted into wells of 96 well-plates containing HeKa cells. The plates were incubated for 6 h at 37° C. in humidified air with 5% CO2. Plates were centrifuged briefly to spin down cells at 4° C., the supernatant was removed and analysed by Meso Scale Discovery (MSD) 4-spot cytokine assay (Pro-inflammatory II Ultra Sensitive kit, MSD, MD, USA). The MSD assay employs a sandwich immunoassay format where capture antibodies are coated in a patterned array on the bottom of the wells of a 4-Spot-Multi-MSD plate. Standard samples were incubated in the MULTI-SPOT plates as well, and the cytokine (IL-8) binds to its corresponding capture antibody spot. The cytokine level was quantitated on a SECTOR™ Imager using a cytokine-specific Detection Antibody labelled with MSD SULFO-TAG™ reagent.
(§1) Test compound titration curves were fitted to a four-parameter sigmoidal curve after normalizing the effect of the test compound to the effect of the positive control (1.5×10^−7 M PEP0005). Rel EC50 denotes the concentration of test compound producing an effect that is midway between the fitted top and bottom.

HeLa cells = experiment: Necrosis assay; conditions: Homo sapiens, 0.5 h, read-out: HeLa Necrosis EC50 range
Method: HeLa cells (ATCC CCL-002) were grown in minimal essential medium (Invitrogen catalog no. 42360) containing 10% fetal bovine serum, 100 IU/ml penicillin and 100 μg/ml streptomycin. 4,000-6,000 cells were seeded into 96-well black ViewPlates-plates, clear bottom, (Perkin Elmer) in 100 μl medium and incubated overnight. Compounds were dissolved and pre-diluted in DMSO in 96-well polypropylene plates (Greiner) in a concentration range of 15 μM to 600 μM. At the time of the experiment cell plates were placed on heating blocks at 37° C., medium was removed and 40 μl fresh, pre-warmed medium was added per well. Cells were incubated for 15 min before addition of compounds. In parallel, 3 μl of compounds were diluted with 197 μl growth medium on a Tecan freedom-EVO pipetting station using 250 μl/s pipetting speed, in order to ensure effective mixing of the highly concentrated compound solutions with the aqueous phase. These pre-dilution plates were then equilibrated on heating blocks at 37° C. for 10 min. 80 μl pre-diluted compound were transferred manually to the corresponding wells containing HeLa cells yielding compound concentrations of 10 μM to 400 μM. Control conditions were 1% DMSO in growth medium (100% viability) and 400 μM ingenol mebutate in growth medium (0% viability). Plates were incubated on the heating blocks at 37° C. for 30 min. At the end of the incubation 10 μl PrestoBlue reagent (Invitrogen) were added to each well, plates were sealed with black seal, followed by incubation at 37° C. for 10 min with gentle shaking (150 rpm). Subsequently, plates were placed at room temperature for 20-30 min. Plates were read immediately after on an Envision Fluorescence reader (Perkin Elmer) with excitation at 535 nm and emission at 630 nm. Test compound titration curves were fitted to a four-parameter sigmoidal curve after normalizing the effect of the test compound to the effect of the positive control (4 10^−4 M PEP0005/ingenol mebutate). AbsEC50 denotes the concentration of test compound producing 50% effect.

[2] = test system: PMN's (polymorphonuclear leukocytes); experiment: Neutrophil oxidative burst assay; conditions: Leukocyte, 40 min, read-out: Neutrophil oxidative burst Rel EC50 range
Method: Neutrophil Oxidative Burst Assay:
PMN's (polymorphonuclear leukocytes) were isolated and purified from fresh buffy coats by sequential sedimentation, density centrifugation and lysis of contaminating erythrocytes. Buffy coats were incubated with 2% methocel for 30-45 min to differentially sediment red blood cells. The leukocyte-rich supernatant was transferred to lymphoprep tubes to remove mononuclear cells by density centrifugation (400×g, 30 min). The pellet was resuspended and any remaining erythrocytes lysed using 0.2% NaCl for 30 sec before restoring isotonicity by the addition of 1.2% NaCl. This step was repeated until the cell pellet appears relatively free of red blood cells. Cells were resuspended in DPBS (Dulbecco's Phosphate Buffered Saline) (w.o. Ca^2+, Mg^2+) and the concentration adjusted to 1.4×10^6 cells/ml in HBSS (Hanks Balanced Salt solution) (w Ca^2+, Mg^2+) containing 0.1% BSA (Bovine Serum Albumin) and 5 mM glucose just prior to assay initiation. Titrated reference and test compounds were pre-mixed with HE (Hydroethidine) (10 μM final assay concentration) before addition to 96-well plates containing 2.5×10^5 cells. Following 40 min incubation at RT, changes in the respiratory burst was estimated by measuring fluorescence at 579 nm (excitation: 485 nm) using an Envision plate reader.
as §1, with “(5×10^−7” for “(1.5×10^−7”, “bottom. Abs EC50 is the concentration of test compound that provokes a response corresponding to 50% of the maximal effect associated with the positive control (5×10^−7 M PEP0005).” for “bottom.”

| SMILES | EC50 ([1]; HeKa cells, 6 h at 37° C., MSD IL-8, normalized to 1.5×10^−7 M PEP0005, read-out: HeKa cytokine release (IL-8) Rel EC50 range) [nM] | EC50 (HeLa cells; HeLa cells, 30 min at 37° C., PrestoBlue, AbsEC50, normalized to 4 10^−4 M PEP0005/ingenol mebutate) [nM] | EC50 ([2]; PMNs, 40 min at RT, hydroethidine fluorescence, normalized to 5×10^−7 M PEP0005) [nM] | EC50 ([1]; HEKa, 6 h, read-out: HeKa cytokine release (IL-8) Rel EC50 range) [nM] | EC50 (HeLa cells; HeLa) [nM] | EC50 [2] [nM] |
| --- | --- | --- | --- | --- | --- | --- |
| C/C=C(\C)C(=O)O[C@H]1C(C)=C[C@]23C(=O)[C@@H](C=C(CO)[C@@H](O)[C@]12O)[C@H]1[C@@H](C[C@H]3C)C1(C)C [Compound 111, Ingenol 3-tiglate] | 20 to 100 | < 350000 | < 20 |  |  |  |
| CC1=C[C@]23C(=O)[C@@H](C=C(CO)[C@@H](O)[C@]2(O)[C@H]1OC(=O)C(c1ccccc1)c1ccccc1)[C@H]1[C@@H](C[C@H]3C)C1(C)C [Compound 119, Ingenol 3-(2,2-diphenylacetate)] |  |  |  | < 20 | < 150000 | < 20 |
